Our source for the inhibition values is patent publication US20190119284A1, “ErbB Inhibitors and Uses Thereof” (The Regents of the University of California, priority 2016, published 2019).

Assay type in all cases: biochemical
Common to all, as to conditions: for inhibition at 1 µM: compound at 1 μM

Assay [1] concerns the target ROCK1 (Homo sapiens, UniProt Q13464). Put plainly: Nanosyn in vitro kinase profiling: ROCK1. The protocol:
(§1) This was confirmed by in vitro profiling against a panel of kinases, with compound 2 only showing potent inhibition of EGFR and Ab1 (Table 2).
(§2) In vitro Kinome Screen. In vitro profiling of compound 2 at 100 nM was conducted by Nanosyn.

Assay [2] has as its target DYRK1A (Homo sapiens, UniProt Q13627). Nature of the assay: Nanosyn in vitro kinase profiling: DYRK1A. As to the method: as §1, §2
Assay [3] deals with T1, AURORA-A (Homo sapiens, UniProt O14965).
T1 sequence (O14965 1-403): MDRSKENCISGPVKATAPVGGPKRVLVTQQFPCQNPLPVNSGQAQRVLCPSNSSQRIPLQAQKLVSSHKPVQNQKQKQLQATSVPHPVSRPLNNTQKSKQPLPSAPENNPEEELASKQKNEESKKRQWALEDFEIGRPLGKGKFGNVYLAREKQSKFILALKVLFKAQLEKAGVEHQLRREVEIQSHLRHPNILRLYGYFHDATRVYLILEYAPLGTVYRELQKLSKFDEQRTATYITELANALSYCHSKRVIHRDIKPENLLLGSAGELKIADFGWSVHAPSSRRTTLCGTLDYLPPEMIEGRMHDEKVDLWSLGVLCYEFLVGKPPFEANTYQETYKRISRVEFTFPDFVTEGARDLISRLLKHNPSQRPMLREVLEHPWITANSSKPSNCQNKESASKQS
Put plainly: Nanosyn in vitro kinase profiling: AURORA-A. The protocol: as §1, §2

The target of assay [4] is EGFR (Homo sapiens, UniProt P00533). Nature of the assay: Nanosyn in vitro kinase profiling: EGFR. As to the method: as §1, §2
Sequence of EGFR (P00533 25-1210): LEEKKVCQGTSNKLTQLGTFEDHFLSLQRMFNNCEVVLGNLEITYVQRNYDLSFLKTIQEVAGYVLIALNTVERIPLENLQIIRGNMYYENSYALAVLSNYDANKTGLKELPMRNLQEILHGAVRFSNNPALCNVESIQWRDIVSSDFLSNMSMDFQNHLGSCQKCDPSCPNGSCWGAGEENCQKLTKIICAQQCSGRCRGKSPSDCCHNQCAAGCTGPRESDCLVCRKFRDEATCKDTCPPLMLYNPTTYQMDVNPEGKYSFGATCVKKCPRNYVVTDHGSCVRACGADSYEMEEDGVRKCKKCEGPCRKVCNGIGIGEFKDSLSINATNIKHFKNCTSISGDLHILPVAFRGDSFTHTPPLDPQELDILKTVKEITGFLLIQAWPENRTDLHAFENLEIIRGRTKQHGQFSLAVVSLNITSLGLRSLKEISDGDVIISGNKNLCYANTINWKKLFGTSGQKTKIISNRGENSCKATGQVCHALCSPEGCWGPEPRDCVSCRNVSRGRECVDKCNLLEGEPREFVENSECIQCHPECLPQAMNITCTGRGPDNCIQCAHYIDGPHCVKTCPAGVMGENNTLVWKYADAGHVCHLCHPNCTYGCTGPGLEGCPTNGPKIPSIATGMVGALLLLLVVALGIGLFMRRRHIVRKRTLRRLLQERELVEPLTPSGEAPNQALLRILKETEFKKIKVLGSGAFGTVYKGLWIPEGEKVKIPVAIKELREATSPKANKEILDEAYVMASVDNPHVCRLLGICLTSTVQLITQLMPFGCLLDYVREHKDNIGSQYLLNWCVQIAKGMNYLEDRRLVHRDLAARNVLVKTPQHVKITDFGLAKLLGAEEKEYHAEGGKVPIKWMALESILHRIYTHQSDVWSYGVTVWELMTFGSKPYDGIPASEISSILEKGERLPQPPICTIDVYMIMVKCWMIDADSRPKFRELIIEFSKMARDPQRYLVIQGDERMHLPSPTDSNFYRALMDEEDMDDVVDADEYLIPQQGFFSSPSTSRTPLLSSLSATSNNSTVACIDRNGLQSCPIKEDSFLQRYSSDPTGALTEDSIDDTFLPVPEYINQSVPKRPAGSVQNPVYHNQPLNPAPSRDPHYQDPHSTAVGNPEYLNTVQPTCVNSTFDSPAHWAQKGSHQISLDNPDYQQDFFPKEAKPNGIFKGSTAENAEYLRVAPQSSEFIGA
The target in assay [5] is ABL1 (Homo sapiens, UniProt P00519). Put plainly: Nanosyn in vitro kinase profiling: ABL1. As to the method:
as §1, §2

Assay [6] concerns the target T2, FLT-3 (Homo sapiens, UniProt P36888).
T2 sequence (P36888 27-993): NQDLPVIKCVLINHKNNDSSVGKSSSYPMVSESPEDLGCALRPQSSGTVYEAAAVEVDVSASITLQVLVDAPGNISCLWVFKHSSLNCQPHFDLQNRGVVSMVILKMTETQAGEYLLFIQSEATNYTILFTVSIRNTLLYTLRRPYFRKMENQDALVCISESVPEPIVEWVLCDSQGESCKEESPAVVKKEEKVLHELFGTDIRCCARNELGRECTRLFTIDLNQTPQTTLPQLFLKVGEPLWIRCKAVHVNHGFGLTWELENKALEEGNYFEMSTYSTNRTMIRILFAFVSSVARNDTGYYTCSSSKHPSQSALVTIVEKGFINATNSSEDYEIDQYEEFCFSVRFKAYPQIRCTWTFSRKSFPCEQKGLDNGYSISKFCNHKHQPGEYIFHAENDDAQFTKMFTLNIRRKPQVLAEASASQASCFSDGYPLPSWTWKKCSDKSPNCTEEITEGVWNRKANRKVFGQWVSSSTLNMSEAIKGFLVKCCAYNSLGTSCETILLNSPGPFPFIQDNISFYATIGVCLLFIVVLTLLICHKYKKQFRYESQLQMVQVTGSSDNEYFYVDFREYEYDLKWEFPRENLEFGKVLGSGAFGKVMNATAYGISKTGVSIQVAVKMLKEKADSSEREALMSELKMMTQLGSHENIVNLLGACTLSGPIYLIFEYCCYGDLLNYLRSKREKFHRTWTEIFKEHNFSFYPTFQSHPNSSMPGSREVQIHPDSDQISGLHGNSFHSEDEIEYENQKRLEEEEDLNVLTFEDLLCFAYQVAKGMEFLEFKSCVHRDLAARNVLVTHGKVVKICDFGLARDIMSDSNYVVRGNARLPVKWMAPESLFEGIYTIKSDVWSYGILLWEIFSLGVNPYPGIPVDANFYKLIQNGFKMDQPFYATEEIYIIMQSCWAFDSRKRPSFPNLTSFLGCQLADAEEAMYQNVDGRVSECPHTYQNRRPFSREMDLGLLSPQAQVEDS
Nature of the assay: Nanosyn in vitro kinase profiling: FLT-3. The protocol: as §1, §2

For assay [7], the target named is T3, MST1 (Homo sapiens, UniProt Q13043).
T3 sequence (Q13043 1-487): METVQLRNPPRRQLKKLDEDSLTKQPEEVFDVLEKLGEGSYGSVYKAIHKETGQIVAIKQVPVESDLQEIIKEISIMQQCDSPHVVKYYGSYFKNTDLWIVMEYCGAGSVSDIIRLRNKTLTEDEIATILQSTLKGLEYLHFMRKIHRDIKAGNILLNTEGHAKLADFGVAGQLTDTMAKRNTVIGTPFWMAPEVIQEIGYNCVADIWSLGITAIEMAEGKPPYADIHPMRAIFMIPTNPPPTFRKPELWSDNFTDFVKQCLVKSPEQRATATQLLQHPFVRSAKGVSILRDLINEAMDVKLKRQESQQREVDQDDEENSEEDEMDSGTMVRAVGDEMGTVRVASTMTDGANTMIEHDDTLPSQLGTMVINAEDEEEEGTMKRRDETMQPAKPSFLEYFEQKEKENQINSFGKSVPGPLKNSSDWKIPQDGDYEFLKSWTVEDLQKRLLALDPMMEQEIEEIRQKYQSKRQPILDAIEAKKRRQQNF
Put plainly: Nanosyn in vitro kinase profiling: MST1. The protocol: as §1, §2

Sequence of ROCK1 (Q13464 whole entry, species assumed): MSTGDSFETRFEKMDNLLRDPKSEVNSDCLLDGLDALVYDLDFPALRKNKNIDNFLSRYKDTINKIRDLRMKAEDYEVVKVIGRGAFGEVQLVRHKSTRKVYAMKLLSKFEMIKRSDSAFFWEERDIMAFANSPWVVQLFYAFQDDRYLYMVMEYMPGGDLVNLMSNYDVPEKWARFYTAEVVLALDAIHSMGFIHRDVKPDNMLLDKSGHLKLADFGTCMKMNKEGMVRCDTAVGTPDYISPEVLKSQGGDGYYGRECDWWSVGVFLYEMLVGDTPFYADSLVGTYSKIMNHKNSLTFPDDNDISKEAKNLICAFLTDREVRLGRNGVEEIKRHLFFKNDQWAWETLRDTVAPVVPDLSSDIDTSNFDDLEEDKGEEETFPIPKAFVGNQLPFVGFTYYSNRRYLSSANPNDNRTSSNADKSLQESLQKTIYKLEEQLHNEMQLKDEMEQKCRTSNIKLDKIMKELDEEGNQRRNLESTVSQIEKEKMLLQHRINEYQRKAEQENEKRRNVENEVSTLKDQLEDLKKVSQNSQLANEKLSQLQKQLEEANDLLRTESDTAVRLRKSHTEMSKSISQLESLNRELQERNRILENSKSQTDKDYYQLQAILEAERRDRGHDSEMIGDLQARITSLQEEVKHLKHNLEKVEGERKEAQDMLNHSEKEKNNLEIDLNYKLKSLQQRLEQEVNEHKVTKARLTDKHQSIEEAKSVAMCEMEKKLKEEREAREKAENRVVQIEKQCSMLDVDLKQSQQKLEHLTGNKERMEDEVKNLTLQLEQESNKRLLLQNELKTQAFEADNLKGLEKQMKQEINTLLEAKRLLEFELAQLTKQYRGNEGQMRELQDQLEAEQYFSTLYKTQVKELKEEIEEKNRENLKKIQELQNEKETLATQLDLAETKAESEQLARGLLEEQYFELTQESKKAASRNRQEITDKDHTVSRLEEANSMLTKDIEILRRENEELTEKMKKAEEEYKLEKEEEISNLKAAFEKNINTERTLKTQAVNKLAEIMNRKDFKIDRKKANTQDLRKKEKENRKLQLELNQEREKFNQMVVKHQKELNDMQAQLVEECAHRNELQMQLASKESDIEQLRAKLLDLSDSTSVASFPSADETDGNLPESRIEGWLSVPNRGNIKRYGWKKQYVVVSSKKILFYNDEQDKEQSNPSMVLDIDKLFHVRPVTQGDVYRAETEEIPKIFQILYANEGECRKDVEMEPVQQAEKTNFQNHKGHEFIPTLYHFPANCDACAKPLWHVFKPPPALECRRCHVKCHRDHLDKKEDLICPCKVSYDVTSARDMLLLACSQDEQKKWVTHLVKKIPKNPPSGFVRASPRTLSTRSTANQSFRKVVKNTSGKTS
Sequence of ABL1 (P00519 whole entry): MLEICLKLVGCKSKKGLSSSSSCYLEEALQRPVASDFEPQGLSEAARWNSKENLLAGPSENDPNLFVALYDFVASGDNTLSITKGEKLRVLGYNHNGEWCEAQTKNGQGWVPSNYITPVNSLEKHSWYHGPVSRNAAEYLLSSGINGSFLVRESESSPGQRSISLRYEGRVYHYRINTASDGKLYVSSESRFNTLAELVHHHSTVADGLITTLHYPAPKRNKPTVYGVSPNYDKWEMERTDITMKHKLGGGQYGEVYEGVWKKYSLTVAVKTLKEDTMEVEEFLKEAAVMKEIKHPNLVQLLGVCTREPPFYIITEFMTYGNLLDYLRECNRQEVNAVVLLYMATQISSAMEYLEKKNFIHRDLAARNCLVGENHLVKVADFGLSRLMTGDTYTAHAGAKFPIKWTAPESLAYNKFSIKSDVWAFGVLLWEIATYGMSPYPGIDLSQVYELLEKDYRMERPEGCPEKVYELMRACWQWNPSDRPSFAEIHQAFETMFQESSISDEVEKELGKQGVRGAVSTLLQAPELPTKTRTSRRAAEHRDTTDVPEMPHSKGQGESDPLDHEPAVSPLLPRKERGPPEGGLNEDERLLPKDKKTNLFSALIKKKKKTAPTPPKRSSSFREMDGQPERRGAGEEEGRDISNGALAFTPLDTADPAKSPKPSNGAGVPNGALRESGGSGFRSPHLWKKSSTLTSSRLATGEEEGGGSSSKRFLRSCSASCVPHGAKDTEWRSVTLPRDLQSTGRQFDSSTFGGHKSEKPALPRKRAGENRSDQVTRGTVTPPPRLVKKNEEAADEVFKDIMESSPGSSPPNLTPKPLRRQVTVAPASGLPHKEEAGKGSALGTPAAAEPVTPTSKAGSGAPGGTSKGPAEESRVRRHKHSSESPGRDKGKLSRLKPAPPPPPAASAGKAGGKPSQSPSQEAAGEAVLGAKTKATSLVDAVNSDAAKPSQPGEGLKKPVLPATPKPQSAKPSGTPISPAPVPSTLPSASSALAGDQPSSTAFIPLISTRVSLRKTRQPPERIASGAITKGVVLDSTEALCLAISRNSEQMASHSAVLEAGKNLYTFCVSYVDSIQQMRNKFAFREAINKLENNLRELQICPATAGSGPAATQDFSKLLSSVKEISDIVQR

Usually inhibition stands for the share of the control response that was lost under treatment. Consider `COc1ccc(-c2ccco2)cc1Nc1ncnc2[nH]nc(-c3ccco3)c12` [compound 2, 3-(furan-2-yl)-N-(5-(furan-2-yl)-2-methoxyphenyl)-1H-pyrazolo[3,4-d]pyrimidin-4-amine], for which the inhibition at 0.1 µM is 0.155% in assay [1] (compound at 100 nM); 5% in assay [2] (compound at 100 nM); 9.95% in assay [3] (compound at 100 nM); 95.6% in assay [4] (compound at 100 nM); 95.2% in assay [5] (compound at 100 nM); 60% in assay [6] (compound at 100 nM). In addition, at 0.1 µM the inhibition in assay [7] (compound at 100 nM) was 3.85%. The inhibition at 1 µM in assay [1] is 1.16%; in assay [2] it was 16.7%; in assay [3] it was 47.2%; in assay [4], 96.9%; in assay [5], 97.2%; in assay [6], 89.4%. The same compound came in with an inhibition at 1 µM in assay [7] of 19.9%.

On to `COc1ccc(-c2ccoc2)cc1Nc1ncnc2[nH]cc(-c3cc[nH]n3)c12` [compound 3, N-(5-(furan-3-yl)-2-methoxyphenyl)-5-(1H-pyrazol-3-yl)-7H-pyrrolo[2,3-d]pyrimidin-4-amine], for which the inhibition at 1 µM came out at 16% in assay [1]; 41% in assay [2]; 31% in assay [3]; 99% in assay [4]; 98% in assay [5]; 78% in assay [6]. Besides, in assay [7], the inhibition at 1 µM turned out to be 84%.
